Earlier results on one substance are cited in patent US5993851A, “Method for preparing biphasic multilamellar lipid vesicles” (PharmaDerm Laboratories, Ltd., priority 1998, dated 1999).

This data set relates to genital warts.

interferon alpha: under “in vivo”, the “Clinical outcome in words” value was “fairly successful”. Moreover, the side effects entry (systemic application (i.m. injection), genital warts) is listed as “fever, myalgias, headache, nausea, fatigue”.
